How the values were obtained:
Assay type in all cases: functional
Bombyx mori [1] = assay: (§1) Anti-juvenile hormone activity in Bombyx mori Shunrei x Shougetsu 24 hr old third-instar larvae exposed to compound through topical application to dorsal abdomen assessed as precocious metamorphosis at 0.1 ug/larva relative to untreated control
Bombyx mori [2] = assay: Anti-juvenile hormone activity in Bombyx mori Shunrei x Shougetsu 24 hr old third-instar larvae exposed to compound through topical application to dorsal abdomen assessed as precocious metamorphosis at 1 ug/larva relative to untreated control
Bombyx mori [3] = assay: Anti-juvenile hormone activity in Bombyx mori Shunrei x Shougetsu 24 hr old third-instar larvae exposed to compound through topical application to dorsal abdomen assessed as precocious metamorphosis at 10 ug/larva relative to untreated control
Bombyx mori [4] = assay: Anti-juvenile hormone activity in Bombyx mori Shunrei x Shougetsu 24 hr old third-instar larvae exposed to compound through topical application to dorsal abdomen assessed as precocious metamorphosis at 40 ug/larva relative to untreated control
Bombyx mori [5] = assay: Anti-juvenile hormone activity in Bombyx mori Shunrei x Shougetsu 24 hr old fifth-instar larvae assessed as time required for onset of cocoon spinning starting from ecdysis day at 1 ug/1 ul applied topically (reference value: 8 +/- 1.2 days)
Bombyx mori [6] = assay: Anti-juvenile hormone activity in Bombyx mori Shunrei x Shougetsu first 48 hr old newly molted third-instar larvae assessed as precocious metamorphosis at 200 ppm mixed with artificial diet untreated control
Bombyx mori [7] = assay: Anti-juvenile hormone activity in Bombyx mori Shunrei x Shougetsu first 48 hr old newly molted third-instar larvae assessed as precocious metamorphosis at 50 ppm mixed with artificial diet untreated control
Bombyx mori [8] = assay: Anti-juvenile hormone activity in Bombyx mori Shunrei x Shougetsu 72 hr old second-instar larvae assessed as precocious metamorphosis at 1 ug/larva relative to untreated control
Bombyx mori [9] = assay: Anti-juvenile hormone activity in Bombyx mori Shunrei x Shougetsu newly molted fourth-instar larvae assessed as precocious metamorphosis at 1 ug/larva relative to untreated control
Bombyx mori [10] = assay: Anti-juvenile hormone activity in Bombyx mori Shunrei x Shougetsu 72 hr old second-instar larvae assessed as precocious metamorphosis at 0.1 ug/larva relative to untreated control
Bombyx mori [11] = assay: Anti-juvenile hormone activity in Bombyx mori Shunrei x Shougetsu newly molted fourth-instar larvae assessed as precocious metamorphosis at 10 ug/larva relative to untreated control
Bombyx mori [12] = assay: Anti-juvenile hormone activity in Bombyx mori Shunrei x Shougetsu 72 hr old second-instar larvae assessed as precocious metamorphosis at 10 ug/larva relative to untreated control
Bombyx mori [13] = assay: as §1, with “ug/larva in presence of 10 ug/larva methoprene applied to 24 hr old third-instar larvae” for “ug/larva”
Bombyx mori [14] = assay: as §1, with “ug/larva in presence of 10 ug/larva methoprene applied to 24 hr old newly molted fourth-instar larvae” for “ug/larva”
Bombyx mori [15] = assay: as §1, with “ug/larva in presence of 20 ppm 20-hydroxyecdysone applied through diet for first 48 hr to 24 hr old third-instar larvae” for “ug/larva”
Bombyx mori [16] = assay: as §1, with “ug/larva in presence of 20 ppm 20-hydroxyecdysone applied through diet for first 48 hr to 24 hr old newly molted fourth-instar larvae” for “ug/larva”

Row | SMILES | Activity (Bombyx mori [1]) [%] | Activity (Bombyx mori [2]) [%] | Activity (Bombyx mori [3]) [%] | Activity (Bombyx mori [4]) [%] | Time (Bombyx mori [5]) [days] | further results
1 | CCOC(=O)c1ccc(OCC(CC)OC(=O)C(C)(C)C)cc1 (stereo not given) | 0 | 10 | 0 | 0 | 12.7 | –
2 | CCCCC(COc1ccc(C(=O)O)cc1)Cc1ccccc1 (stereo not given) | – | – | – | – | – | Activity (Bombyx mori [6]): 0%; Activity (Bombyx mori [7]): 0%
3 | CCCC[C@H](COc1ccc(C(=O)OCC)cc1)Cc1ccccc1 | 52 | 96 | 17 | 15 | 14.3 | Activity (Bombyx mori [8]): 89%; Activity (Bombyx mori [9]): 10%; Activity (Bombyx mori [10]): 20%; Activity (Bombyx mori [11]): 0%; Activity (Bombyx mori [12]): 95%
4 | CCCC[C@@H](COc1ccc(C(=O)OCC)cc1)Cc1ccccc1 | 0 | 8 | 42 | 67 | 8.4 | Activity (Bombyx mori [8]): 0%; Activity (Bombyx mori [9]): 5%; Activity (Bombyx mori [10]): 0%; Activity (Bombyx mori [11]): 0%; Activity (Bombyx mori [12]): 0%
5 | CCCCC[C@H](COc1ccc(C(=O)OCC)cc1)Cc1ccccc1 | 65 | 97 | 39 | 17 | – | –
6 | CCCCC[C@@H](COc1ccc(C(=O)OCC)cc1)Cc1ccccc1 | 0 | 54 | 83 | 76 | – | –
7 | CCOC(=O)c1ccc(OCC(Cc2ccccc2)Cc2ccccc2)cc1 | 0 | 35 | 65 | 95 | – | –
8 | CCCCC(COc1ccc(C(=O)OCC)cc1)Cc1ccccc1 (racemic) | 21 | 90 | 34 | 12 | 10.1 | Activity (Bombyx mori [8]): 45%; Activity (Bombyx mori [9]): 5%; Activity (Bombyx mori [10]): 0%; Activity (Bombyx mori [11]): 10%; Activity (Bombyx mori [13]): 0%; Activity (Bombyx mori [6]): 5%; Activity (Bombyx mori [7]): 58%; Activity (Bombyx mori [14]): 0%; Activity (Bombyx mori [15]): 95%; Activity (Bombyx mori [12]): 85%; Activity (Bombyx mori [16]): 100%
9 | CCOC(=O)c1ccc(OCC(CC)Cc2ccccc2)cc1 (racemic) | 0 | 0 | 5 | – | – | –
10 | CCCC(COc1ccc(C(=O)OCC)cc1)Cc1ccccc1 (racemic) | 0 | 22 | 37 | 87 | – | –
11 | CCOC(=O)c1ccc(OCC(Cc2ccccc2)CC(C)C)cc1 (racemic) | 0 | 0 | 22 | 46 | – | –
12 | CCCCCC(COc1ccc(C(=O)OCC)cc1)Cc1ccccc1 (racemic) | 37 | 94 | 48 | 20 | – | –
13 | CCCCCCC(COc1ccc(C(=O)OCC)cc1)Cc1ccccc1 (racemic) | 0 | 20 | 42 | 62 | – | –
14 | COC(C)(C)CCC[C@H](C)C/C=C/C(C)=C/C(=O)OC(C)C [METHOPRENE] | – | – | – | – | 10.9 | –

Reference: ChEMBL document CHEMBL3045873, “Synthesis and anti-juvenile hormone activity of ethyl 4-(2-benzylalkyloxy)benzoates and their enantiomers” (2007)
